Assay results published in patent publication US9181236B2, “2-spiro-substituted iminothiazines and their mono-and dioxides as bace inhibitors, compositions and their use” (Merck Sharp & Dohme Corp., priority 2011, dated 2015).

Each compound was assayed against soluble human BACE1 catalytic domain (Homo sapiens (Human), UniProt P56817) (assay: BACE1 HTRF FRET Assay). Conditions: Ki calculated from IC50 using the Cheng-Prusoff equation.
Assay type: biochemical
Description: A homogeneous time-resolved FRET assay can be used to determine IC50 values for inhibitors of the soluble human BACE1 catalytic domain. This assay monitors the increase of 620 nm fluorescence that resulted from BACE1 cleavage of an APPswedish APP^swe mutant peptide FRET substrate (QSY7-[…]-Europium-amide). This substrate contains an N-terminal QSY7 moiety that serves as a quencher of the C-terminal Europium fluorophore (620 nm Em). In the absence of enzyme activity, 620 nm fluorescence is low in the assay and increased linearly over 3 hours in the presence of uninhibited BACE1 enzyme Inhibition of BACE1 cleavage of the QSY7-APP^swe-Eu substrate by inhibitors is manifested as a suppression of 620 nm fluorescence.
Reactions are initiated by addition of 10 μl of 600 nM QSY7-APP^swe-Eu substrate (200 nM final) to give a final reaction volume of 30 μl in a 384 well Nunc HTRF plate. The reactions are incubated at 30° C. for 1.5 hours. The 620 nm fluorescence is then read on a Rubystar HTRF plate reader (BMG Labtechnologies) using a 50 millisecond delay followed by a 400 millisecond acquisition time window Inhibitor IC50 values are derived from non-linear regression analysis of concentration response curves.

soluble human BACE1 catalytic domain, sequence (P56817 75-416): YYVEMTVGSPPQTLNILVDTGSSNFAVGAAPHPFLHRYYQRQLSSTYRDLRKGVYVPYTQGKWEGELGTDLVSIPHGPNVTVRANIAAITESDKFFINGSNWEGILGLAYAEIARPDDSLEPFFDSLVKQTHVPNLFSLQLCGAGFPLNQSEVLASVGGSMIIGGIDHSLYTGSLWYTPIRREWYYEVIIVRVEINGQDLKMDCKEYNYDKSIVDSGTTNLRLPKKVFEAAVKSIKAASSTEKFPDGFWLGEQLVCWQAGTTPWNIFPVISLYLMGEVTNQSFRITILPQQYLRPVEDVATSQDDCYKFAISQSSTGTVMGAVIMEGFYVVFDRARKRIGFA

SMILES	Ki
C[C@@]1(c2sc(C#CCN3CCOCC3)cc2Cl)CS(=O)(=O)C2(CCC2)C(=N)N1 [Example 77d]	2360 nM
COCC(=O)Nc1ccc(F)c([C@]2(C)CS(=O)(=O)[C@]3(CCOC3)C(=N)N2)c1 [Example 81w]	429 nM
Cc1cc2cccc(NC(=O)c3cc(Cl)c([C@]4(C)CS(=O)(=O)C5(CCCCC5)C(=N)N4)s3)c2o1 [Example 80i]	6050 nM
Cc1cncc(NC(=O)c2cc(Cl)c([C@]3(C)CS(=O)(=O)C4(CCCCC4)C(=N)N3)s2)c1 [Example 80g]	2160 nM
C[C@@]1(c2cc(NC(=O)c3ncc(F)cc3F)ccc2F)CS(=O)(=O)[C@]2(CCOC2)C(=N)N1 [Example 81k]	26 nM
C[C@@]1(c2cc(NC(=O)c3ccc(OC(F)(F)F)cn3)ccc2F)CS(=O)(=O)[C@]2(CCOC2)C(=N)N1 [Example 81aa]	304 nM
CC(C)(O)c1cncc(-c2cc(Cl)c([C@]3(C)CS(=O)(=O)[C@]4(CCOC4)C(=N)N3)s2)c1 [Example 62m]	2420 nM
CC(=O)Nc1ccc(F)c([C@]2(C)CS(=O)(=O)[C@]3(CCOC3)C(=N)N2)c1 [Example 81x]	1520 nM
CCOCC(=O)Nc1ccc(F)c([C@]2(C)CS(=O)(=O)[C@]3(CCOC3)C(=N)N2)c1 [Example 81a]	4150 nM
C[C@@]1(c2sc(-c3cccc(N4CCCC4)c3)cc2Cl)CS(=O)(=O)C2(CCOCC2)C(=N)N1 [Example 56]	5740 nM
COc1cncc(-c2cc(Cl)c([C@]3(C)CS(=O)(=O)C4(CCOCC4)C(=N)N3)s2)c1 [Example 53]	555 nM
COc1ccc(C(=O)Nc2ccc(F)c([C@]3(C)CS(=O)(=O)[C@]4(CCOC4)C(=N)N3)c2)nn1 [Example 81ae]	904 nM
C[C@@]1(c2sc(-c3cccc(-c4nnco4)c3)cc2Cl)CS(=O)(=O)C2(CCCC2)C(=N)N1 [Example 43a]	37 nM
CC1(C(=O)Nc2ccc(F)c([C@]3(C)CS(=O)(=O)[C@]4(CCOC4)C(=N)N3)c2)CC1 [Example 81e]	998 nM
C[C@@]1(c2cc(NC(=O)CC3CC3)ccc2F)CS(=O)(=O)[C@]2(CCOC2)C(=N)N1 [Example 81g]	2960 nM
C[C@@]1(c2sc(-c3ccnc(-c4ccccc4)c3)cc2Cl)CS(=O)(=O)[C@@]2(CCOC2)C(=N)N1 [Example 63k]	849 nM
C[C@@]1(c2cc(NC(=O)CC(F)(F)F)ccc2F)CS(=O)(=O)[C@]2(CCOC2)C(=N)N1 [Example 81r]	3170 nM
C[C@@]1(c2cc(NC(=O)c3ccc(S(C)(=O)=O)cn3)ccc2F)CS(=O)(=O)[C@]2(CCOC2)C(=N)N1 [Example 81z]	3170 nM
C[C@@]1(c2sc(-c3cncc(N4CCOCC4)c3)cc2Cl)CS(=O)(=O)[C@@]2(CCOC2)C(=N)N1 [Example 63j]	3690 nM
C[C@@]1(c2sc(C#CCCNS(C)(=O)=O)cc2Cl)CS(=O)(=O)C2(CCC2)C(=N)N1 [Example 77c]	105 nM
C[C@@]1(c2cc(-c3cccc(C#N)c3)ccc2F)CS(=O)(=O)C2(CCCC2)C(=N)N1 [Example 36]	1290 nM

SMILES	Ki
C[C@@]1(c2sc(C(=O)NCc3ccsn3)cc2Cl)CS(=O)(=O)C2(CCCCC2)C(=N)N1 [Example 80k]	121 nM
C[C@@]1(c2cc(-c3cncc(C#N)c3)ccc2F)CS(=O)(=O)C2(CCCC2)C(=N)N1 [Example 38]	939 nM
C[C@@]1(c2cc(NC(=O)c3ncc(Cl)cc3Cl)ccc2F)CS(=O)(=O)C2(CCCC2)C(=N)N1 [Example 18]	2.7 nM
C[C@@]1(c2sc(-c3cncnc3)cc2Cl)CS(=O)(=O)C2(CCCC2)C(=N)N1 [Example 43]	73.1 nM
C[C@@]1(c2cc(-n3cc(-c4ccccc4)nn3)ccc2F)CS(=O)(=O)C2(CCC2)C(=N)N1 [Example 39a]	2320 nM
C[C@@]1(c2sc(-c3cncnc3)cc2Cl)CS(=O)(=O)C2(CCC2)C(=N)N1 [Example 60]	374 nM
C[C@@]1(c2cc(NC(=O)c3ncc(Cl)cc3F)ccc2F)CS(=O)(=O)C2(CCOCC2)C(=N)N1 [Example 35a]	6.5 nM
C[C@@]1(c2sc(C(=O)NCc3cnn4ccccc34)cc2Cl)CS(=O)(=O)C2(CCCCC2)C(=N)N1 [Example 80b]	41 nM
CCc1cccc(NC(=O)c2cc(Cl)c([C@]3(C)CS(=O)(=O)C4(CCCCC4)C(=N)N3)s2)n1 [Example 80m]	717 nM
C[C@@]1(c2sc(C(=O)NCc3ccncn3)cc2Cl)CS(=O)(=O)C2(CCCCC2)C(=N)N1 [Example 80c]	4150 nM
C[C@@]1(c2cc(NC(=O)c3ccc(Cl)cc3)ccc2F)CS(=O)(=O)[C@]2(CCOC2)C(=N)N1 [Example 81m]	82 nM
C[C@@]1(c2cc(NC(=O)c3ncc(Cl)cc3Cl)ccc2F)CS(=O)(=O)C2(CCOCC2)C(=N)N1 [Example 31]	4.1 nM
C[C@@]1(c2cc(NC(=O)c3cscn3)ccc2F)CS(=O)(=O)[C@]2(CCOC2)C(=N)N1 [Example 81u]	433 nM
CC1(C(=O)Nc2ccc(F)c([C@]3(C)CS(=O)(=O)[C@]4(CCOC4)C(=N)N3)c2)COC1 [Example 81p]	4180 nM
C[C@@]1(c2cc(NC(=O)C3(C#N)CC3)ccc2F)CS(=O)(=O)[C@]2(CCOC2)C(=N)N1 [Example 81i]	741 nM
Cc1cnc(C(=O)Nc2ccc(F)c([C@]3(C)CS(=O)(=O)[C@]4(CCOC4)C(=N)N3)c2)cn1 [Example 81h]	108 nM
C[C@@]1(c2cc(NC(=O)C3CCC3)ccc2F)CS(=O)(=O)[C@]2(CCOC2)C(=N)N1 [Example 81f]	2080 nM
C[C@@]1(c2cc(NC(=O)c3cncs3)ccc2F)CS(=O)(=O)[C@]2(CCOC2)C(=N)N1 [Example 81t]	1940 nM
C[C@@]1(c2sc(C(=O)NCc3ccc(C#N)cc3)cc2Cl)CS(=O)(=O)C2(CCCCC2)C(=N)N1 [Example 80f]	851 nM
Cc1ccc(C(=O)Nc2ccc(F)c([C@]3(C)CS(=O)(=O)[C@]4(CCOC4)C(=N)N3)c2)nc1 [Example 81y]	41 nM
C[C@@]1(c2sc(C(=O)NCc3ccc(F)cc3)cc2Cl)CS(=O)(=O)C2(CCCCC2)C(=N)N1 [Example 80e]	588 nM

SMILES	Ki
C[C@@]1(c2cc(NC(=O)C3CCC3(F)F)ccc2F)CS(=O)(=O)[C@]2(CCOC2)C(=N)N1 (stereo partly drawn) [Example 81o]	3710 nM
CCC(=O)Nc1ccc(F)c([C@]2(C)CS(=O)(=O)[C@]3(CCOC3)C(=N)N2)c1 [Example 81l]	949 nM
C[C@@]1(c2cc(NC(=O)c3ncc(Cl)cc3C#N)ccc2F)CS(=O)(=O)[C@]2(CCOC2)C(=N)N1 [Example 81ag]	5.7 nM
C[C@@]1(c2cc(NC(=O)C(F)F)ccc2F)CS(=O)(=O)[C@]2(CCOC2)C(=N)N1 [Example 81n]	639 nM
C[C@@]1(c2cc(NC(=O)C3CCO3)ccc2F)CS(=O)(=O)[C@]2(CCOC2)C(=N)N1 (stereo partly drawn) [Example 81d]	488 nM
C[C@@]1(c2sc(-c3cncnc3)cc2Cl)CS(=O)(=O)C2(CCOCC2)C(=N)N1 [Example 51]	688 nM
C[C@@]1(c2cc(NC(=O)c3cocn3)ccc2F)CS(=O)(=O)[C@]2(CCOC2)C(=N)N1 [Example 81c]	180 nM
C[C@@]1(c2cc(-c3cncc(Cl)c3)ccc2F)CS(=O)(=O)C2(CCCC2)C(=N)N1 [Example 37]	459 nM
C[C@@]1(c2sc(C(=O)NCc3cnsn3)cc2Cl)CS(=O)(=O)C2(CCCCC2)C(=N)N1 [Example 80a]	144 nM
COc1cccc2cc(-c3ccc(F)c([C@]4(C)CS(=O)(=O)C5(CCCC5)C(=N)N4)c3)n(C(=O)OC(C)(C)C)c12 [Example 39]	1330 nM
C[C@@]1(c2sc(-c3cncc(F)c3)cc2Cl)CS(=O)(=O)C2(CCOCC2)C(=N)N1 [Example 55]	260 nM
C[C@@]1(c2cc(NC(=O)C3CC3)ccc2F)CS(=O)(=O)[C@]2(CCOC2)C(=N)N1 [Example 81]	5170 nM
C[C@@]1(c2sc(-c3cccc(-c4nnco4)c3)cc2Cl)CS(=O)(=O)C2(CCOCC2)C(=N)N1 [Example 57a]	34.9 nM
C[C@@]1(c2sc(-c3cncnc3)cc2Cl)CS(=O)(=O)C2(CCCCC2)C(=N)N1 [Example 47]	545 nM
C[C@@]1(c2cc(NC(=O)[C@H]3CCCO3)ccc2F)CS(=O)(=O)[C@]2(CCOC2)C(=N)N1 [Example 81j]	1400 nM
COc1cccc(NC(=O)c2cc(Cl)c([C@]3(C)CS(=O)(=O)C4(CCCCC4)C(=N)N3)s2)n1 [Example 80l]	207 nM
Cn1ccc(NC(=O)c2cc(Cl)c([C@]3(C)CS(=O)(=O)C4(CCCCC4)C(=N)N3)s2)n1 [Example 80j]	2010 nM
C[C@@]1(c2sc(-c3ccnc(-c4ccoc4)c3)cc2Cl)CS(=O)(=O)[C@@]2(CCOC2)C(=N)N1 [Example 63l]	674 nM
C[C@@]1(c2sc(-c3cncc(N4CCOCC4)c3)cc2Cl)CS(=O)(=O)[C@]2(CCOC2)C(=N)N1 [Example 62i]	1660 nM
Cc1cc(C(=O)Nc2ccc(F)c([C@]3(C)CS(=O)(=O)[C@]4(CCOC4)C(=N)N3)c2)no1 [Example 81af]	1330 nM

Same assay, conditions: read-out: BACE1 % Inh. at 10 μM

SMILES	inhibition at 10 µM
Cc1ncc(NC(=O)c2cc(Cl)c([C@]3(C)CS(=O)(=O)C4(CCCCC4)C(=N)N3)s2)cn1 [Example 80h]	32%
C[C@@]1(c2cc(NC(=O)c3ccc(F)cc3F)ccc2F)CS(=O)(=O)[C@]2(CCOC2)C(=N)N1 [Example 81v]	58%
CC(C)C(F)(F)c1ccc(C(=O)Nc2ccc(F)c([C@]3(C)CS(=O)(=O)[C@]4(CCOC4)C(=N)N3)c2)nc1 [Example 81ac]	35%
C[C@@]1(c2cc(NC(=O)C3CCOCC3)ccc2F)CS(=O)(=O)[C@]2(CCOC2)C(=N)N1 [Example 81q]	15%
